Measurements: PubChem BioAssay AID540332 (The Scripps Research Institute Molecular Screening Center, 2011)
The source made the active and inactive calls. How the calls were made is not given here.

Columns and labels:
Assay in all cases: selectivity profile across receptors and CYP450s – biochemical, Ricerca HitProfilingScreen, CYP450, set 2, selectivity assay for S1P4 agonist project, profiling panel (AID 540332)
[1] = target: 5-hydroxytryptamine receptor 2B (Homo sapiens) (UniProt P41595); details: Serotonin (5-Hydroxytryptamine) 5-HT2B; at 30 µM; hits give high values
Chain of 5-hydroxytryptamine receptor 2B (Homo sapiens) (P41595 whole entry, looked up): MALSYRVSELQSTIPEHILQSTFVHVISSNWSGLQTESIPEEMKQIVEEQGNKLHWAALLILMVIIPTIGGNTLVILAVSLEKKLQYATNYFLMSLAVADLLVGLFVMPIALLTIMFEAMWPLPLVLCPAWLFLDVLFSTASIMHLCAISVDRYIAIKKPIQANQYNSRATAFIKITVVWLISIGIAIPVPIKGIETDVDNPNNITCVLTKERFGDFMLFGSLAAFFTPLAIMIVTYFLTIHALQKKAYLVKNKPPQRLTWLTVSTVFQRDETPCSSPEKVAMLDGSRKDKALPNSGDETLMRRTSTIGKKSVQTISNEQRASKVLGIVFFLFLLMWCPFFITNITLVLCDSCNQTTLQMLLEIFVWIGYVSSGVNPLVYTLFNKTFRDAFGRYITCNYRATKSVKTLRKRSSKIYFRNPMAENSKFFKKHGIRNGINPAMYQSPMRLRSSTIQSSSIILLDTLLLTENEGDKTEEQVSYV

[2] = tested on: Adenosine A1; details: at 30 µM; hits give high values
[3] = tested on: Adenosine A2A; details: at 30 µM; hits give high values
[4] = tested on: Adrenergic alpha1A; details: at 30 µM; hits give high values
[5] = tested on: Adrenergic alpha1B; details: at 30 µM; hits give high values
[6] = tested on: Adrenergic beta1; details: at 30 µM; hits give high values
[7] = target: Alpha-2A adrenergic receptor (Homo sapiens) (UniProt P08913); details: Adrenergic alpha2A; at 30 µM; hits give high values
Chain of Alpha-2A adrenergic receptor (Homo sapiens) (P08913 whole entry, looked up): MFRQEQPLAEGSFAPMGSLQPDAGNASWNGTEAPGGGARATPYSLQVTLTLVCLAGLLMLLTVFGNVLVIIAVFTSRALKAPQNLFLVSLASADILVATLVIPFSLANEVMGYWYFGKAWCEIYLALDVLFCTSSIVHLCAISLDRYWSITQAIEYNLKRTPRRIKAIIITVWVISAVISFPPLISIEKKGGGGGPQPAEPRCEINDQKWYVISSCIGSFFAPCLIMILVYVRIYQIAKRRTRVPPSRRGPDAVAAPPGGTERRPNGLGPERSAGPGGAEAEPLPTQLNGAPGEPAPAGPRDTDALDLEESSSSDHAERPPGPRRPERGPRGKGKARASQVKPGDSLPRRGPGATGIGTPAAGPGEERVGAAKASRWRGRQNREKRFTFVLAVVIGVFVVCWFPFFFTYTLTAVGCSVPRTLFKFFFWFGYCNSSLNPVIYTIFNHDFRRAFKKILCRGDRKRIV

[8] = tested on: Alpha-2A adrenergic receptor (Homo sapiens) + Histamine H1 receptor (Homo sapiens) + Mu-type opioid receptor (Homo sapiens); details: at 30 µM; hits give high values
[9] = target: Beta-2 adrenergic receptor (Homo sapiens) (UniProt P07550); details: Adrenergic beta2; at 30 µM; hits give high values
Chain of Beta-2 adrenergic receptor (Homo sapiens) (P07550 whole entry, looked up): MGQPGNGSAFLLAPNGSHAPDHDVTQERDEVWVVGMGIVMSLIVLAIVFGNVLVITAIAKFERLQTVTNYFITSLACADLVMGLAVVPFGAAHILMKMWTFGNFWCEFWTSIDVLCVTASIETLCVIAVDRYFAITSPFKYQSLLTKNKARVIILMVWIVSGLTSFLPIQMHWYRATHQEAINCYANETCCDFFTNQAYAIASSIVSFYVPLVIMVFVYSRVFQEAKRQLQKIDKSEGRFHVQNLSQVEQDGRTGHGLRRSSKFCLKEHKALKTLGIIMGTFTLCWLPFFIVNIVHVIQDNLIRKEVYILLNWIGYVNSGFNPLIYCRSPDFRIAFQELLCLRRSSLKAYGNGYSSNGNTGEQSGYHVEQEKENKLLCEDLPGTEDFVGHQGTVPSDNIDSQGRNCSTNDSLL

[10] = tested on: CYP450 2C19; details: at 30 µM; hits give high values
[11] = tested on: Calcium Channel L-Type, Dihydropyridine; details: at 30 µM; hits give high values
[12] = tested on: Cannabinoid CB1; details: at 30 µM; hits give high values
[13] = target: Cytochrome P450 1A2 (Homo sapiens) (UniProt P05177); details: CYP450 1A2; at 30 µM; hits give high values
Chain of Cytochrome P450 1A2 (Homo sapiens) (P05177 whole entry, looked up): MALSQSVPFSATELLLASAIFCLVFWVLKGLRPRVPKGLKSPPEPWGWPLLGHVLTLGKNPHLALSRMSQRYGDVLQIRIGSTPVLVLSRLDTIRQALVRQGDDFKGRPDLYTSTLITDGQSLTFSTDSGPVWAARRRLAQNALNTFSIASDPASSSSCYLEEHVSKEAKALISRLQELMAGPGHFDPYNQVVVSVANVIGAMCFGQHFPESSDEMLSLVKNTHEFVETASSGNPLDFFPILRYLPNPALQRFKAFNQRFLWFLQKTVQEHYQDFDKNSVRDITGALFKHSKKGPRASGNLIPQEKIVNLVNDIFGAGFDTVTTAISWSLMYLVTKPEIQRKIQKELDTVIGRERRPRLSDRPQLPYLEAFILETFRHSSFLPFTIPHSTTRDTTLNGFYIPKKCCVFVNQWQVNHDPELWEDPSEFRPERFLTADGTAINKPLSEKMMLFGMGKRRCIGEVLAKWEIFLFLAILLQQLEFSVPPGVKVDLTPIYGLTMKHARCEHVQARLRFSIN

[14] = target: Cytochrome P450 2C9 (Homo sapiens) (UniProt P11712); details: CYP450 2C9; at 30 µM; hits give high values
Chain of Cytochrome P450 2C9 (Homo sapiens) (P11712 whole entry, looked up): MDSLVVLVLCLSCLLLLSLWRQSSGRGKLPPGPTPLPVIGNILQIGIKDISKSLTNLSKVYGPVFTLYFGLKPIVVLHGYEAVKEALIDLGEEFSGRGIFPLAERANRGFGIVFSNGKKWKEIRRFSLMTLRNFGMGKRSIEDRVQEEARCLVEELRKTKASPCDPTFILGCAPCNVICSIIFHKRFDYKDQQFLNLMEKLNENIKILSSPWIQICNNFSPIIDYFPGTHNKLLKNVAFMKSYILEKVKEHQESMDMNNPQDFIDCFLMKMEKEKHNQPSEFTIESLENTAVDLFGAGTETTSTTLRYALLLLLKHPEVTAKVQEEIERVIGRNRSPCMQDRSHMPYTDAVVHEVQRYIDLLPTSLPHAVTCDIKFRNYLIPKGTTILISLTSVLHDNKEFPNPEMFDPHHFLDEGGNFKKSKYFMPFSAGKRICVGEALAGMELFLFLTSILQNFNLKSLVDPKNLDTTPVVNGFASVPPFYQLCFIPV

[15] = target: Cytochrome P450 2D6 (Homo sapiens) (UniProt P10635); details: CYP450 2D6; at 30 µM; hits give high values
Chain of Cytochrome P450 2D6 (Homo sapiens) (P10635 whole entry, looked up): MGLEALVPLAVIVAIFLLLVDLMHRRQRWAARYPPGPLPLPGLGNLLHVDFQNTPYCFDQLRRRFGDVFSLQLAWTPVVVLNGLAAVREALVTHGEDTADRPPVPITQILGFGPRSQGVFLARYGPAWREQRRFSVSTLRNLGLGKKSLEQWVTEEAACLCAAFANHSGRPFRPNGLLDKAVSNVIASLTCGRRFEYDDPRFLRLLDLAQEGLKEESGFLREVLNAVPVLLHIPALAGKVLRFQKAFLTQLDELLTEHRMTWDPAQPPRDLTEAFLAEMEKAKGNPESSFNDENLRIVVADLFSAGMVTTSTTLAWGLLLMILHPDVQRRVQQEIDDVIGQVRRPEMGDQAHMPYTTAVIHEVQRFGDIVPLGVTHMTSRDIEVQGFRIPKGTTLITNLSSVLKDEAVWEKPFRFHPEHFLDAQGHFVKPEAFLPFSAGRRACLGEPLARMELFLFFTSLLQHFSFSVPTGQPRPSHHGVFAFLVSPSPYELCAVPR

[16] = target: Cytochrome P450 3A4 (Homo sapiens) (UniProt P08684); details: CYP450 3A4; at 30 µM; hits give high values
Chain of Cytochrome P450 3A4 (Homo sapiens) (P08684 whole entry, looked up): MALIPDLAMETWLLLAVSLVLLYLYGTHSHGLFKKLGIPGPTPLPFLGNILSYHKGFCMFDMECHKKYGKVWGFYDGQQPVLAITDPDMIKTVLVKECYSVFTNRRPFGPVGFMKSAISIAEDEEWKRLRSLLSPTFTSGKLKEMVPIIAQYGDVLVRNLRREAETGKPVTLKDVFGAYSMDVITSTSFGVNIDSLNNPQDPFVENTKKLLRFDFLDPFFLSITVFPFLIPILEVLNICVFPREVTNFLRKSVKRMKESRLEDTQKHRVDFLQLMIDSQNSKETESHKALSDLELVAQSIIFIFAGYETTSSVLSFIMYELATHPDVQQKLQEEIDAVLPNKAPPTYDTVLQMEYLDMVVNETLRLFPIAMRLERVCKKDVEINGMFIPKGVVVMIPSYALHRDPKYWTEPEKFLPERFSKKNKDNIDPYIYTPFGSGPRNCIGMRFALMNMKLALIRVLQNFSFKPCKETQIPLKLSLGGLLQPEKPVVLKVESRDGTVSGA

[17] = target: D(1A) dopamine receptor (Homo sapiens) (UniProt P21728); details: Dopamine D1; at 30 µM; hits give high values
Chain of D(1A) dopamine receptor (Homo sapiens) (P21728 whole entry, looked up): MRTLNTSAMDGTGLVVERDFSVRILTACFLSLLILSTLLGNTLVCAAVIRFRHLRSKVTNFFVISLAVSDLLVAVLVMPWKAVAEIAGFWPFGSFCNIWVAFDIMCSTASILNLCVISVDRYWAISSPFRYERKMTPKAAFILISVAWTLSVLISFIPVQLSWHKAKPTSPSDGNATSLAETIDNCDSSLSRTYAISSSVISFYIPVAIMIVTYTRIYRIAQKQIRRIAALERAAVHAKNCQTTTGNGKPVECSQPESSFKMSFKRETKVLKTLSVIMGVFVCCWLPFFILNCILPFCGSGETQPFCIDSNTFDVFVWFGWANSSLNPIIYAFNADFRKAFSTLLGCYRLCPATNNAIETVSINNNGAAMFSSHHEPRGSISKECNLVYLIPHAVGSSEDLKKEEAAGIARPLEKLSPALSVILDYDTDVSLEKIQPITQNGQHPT

[18] = tested on: Dopamine D2; details: at 30 µM; hits give high values
[19] = tested on: GABAA; details: Central, at 30 µM, hits give high values
[20] = tested on: Glutamate, NMDA; details: Phencyclidine; at 30 µM; hits give high values
[21] = tested on: Histamine H1; details: at 30 µM; hits give high values
[22] = target: Muscarinic acetylcholine receptor M2 (Homo sapiens) (UniProt P08172); details: at 30 µM, hits give high values
Chain of Muscarinic acetylcholine receptor M2 (Homo sapiens) (P08172 whole entry, looked up): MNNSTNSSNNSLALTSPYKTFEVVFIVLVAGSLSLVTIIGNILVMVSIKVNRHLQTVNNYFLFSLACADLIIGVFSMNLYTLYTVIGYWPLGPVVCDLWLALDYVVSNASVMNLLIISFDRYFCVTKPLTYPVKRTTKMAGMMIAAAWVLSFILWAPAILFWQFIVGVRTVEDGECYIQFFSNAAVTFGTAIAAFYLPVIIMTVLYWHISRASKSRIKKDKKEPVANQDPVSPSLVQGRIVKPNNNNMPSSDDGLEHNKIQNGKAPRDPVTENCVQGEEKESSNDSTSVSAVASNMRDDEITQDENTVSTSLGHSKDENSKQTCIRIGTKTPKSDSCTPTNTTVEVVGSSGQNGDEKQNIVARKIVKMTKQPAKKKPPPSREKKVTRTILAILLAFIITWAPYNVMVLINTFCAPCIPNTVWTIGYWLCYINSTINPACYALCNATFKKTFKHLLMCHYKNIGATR

[23] = target: Muscarinic acetylcholine receptor M3 (Homo sapiens) (UniProt P20309); details: at 30 µM, hits give high values
Chain of Muscarinic acetylcholine receptor M3 (Homo sapiens) (P20309 whole entry, looked up): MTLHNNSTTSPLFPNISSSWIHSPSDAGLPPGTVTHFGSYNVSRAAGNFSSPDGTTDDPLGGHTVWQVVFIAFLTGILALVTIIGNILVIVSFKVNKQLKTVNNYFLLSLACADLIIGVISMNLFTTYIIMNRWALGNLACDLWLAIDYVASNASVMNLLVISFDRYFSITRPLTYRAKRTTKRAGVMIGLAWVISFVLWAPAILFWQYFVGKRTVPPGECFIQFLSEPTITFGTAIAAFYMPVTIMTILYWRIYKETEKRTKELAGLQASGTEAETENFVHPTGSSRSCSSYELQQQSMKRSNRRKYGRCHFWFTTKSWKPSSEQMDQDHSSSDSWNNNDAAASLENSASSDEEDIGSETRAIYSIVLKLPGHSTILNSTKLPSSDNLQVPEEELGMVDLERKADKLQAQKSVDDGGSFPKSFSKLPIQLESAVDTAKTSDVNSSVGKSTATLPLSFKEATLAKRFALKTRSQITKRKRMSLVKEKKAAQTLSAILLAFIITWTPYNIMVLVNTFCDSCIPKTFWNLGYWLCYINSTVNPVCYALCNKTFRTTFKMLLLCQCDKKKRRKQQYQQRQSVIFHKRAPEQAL

[24] = tested on: Nicotinic Acetylcholine; details: at 30 µM; hits give high values
[25] = tested on: Norepinephrine Transporter (NET); details: at 30 µM; hits give high values
[26] = tested on: Opiate mu (OP3, MOP); details: at 30 µM; hits give high values
[27] = tested on: Prostanoid EP4; details: at 30 µM; hits give high values
[28] = tested on: Sigma 1; details: at 30 µM; hits give high values
[29] = tested on: Sodium Channel, Site 2; details: at 30 µM; hits give high values
[30] = target: Voltage-gated inwardly rectifying potassium channel KCNH2 (Homo sapiens) (UniProt Q12809); details: Potassium Channel hERG; at 30 µM; hits give high values

Measured: inhibition

COCCN=C1S/C(=C\c2cc(C)n(-c3ccc(F)cc3F)c2C)C(=O)N1C
active: [1] 66% | [11] 64% | [12] 65% | [16] 56% | [21] 52% | [24] -53% | [25] 71% | [26] 69% | [29] 59%
inactive: [2] 29% | [3] 26% | [4] 40% | [5] 42% | [6] 39% | [7] 40% | [8] 11% | [9] 6% | [10] -24% | [13] 14% | [14] -28% | [15] 8% | [17] 27% | [18] 12% | [19]; Flunitrazepam -8% | [19]; Muscimol 3% | [20] 6% | [22] 13% | [23] 23% | [27] 29% | [28] 2% | [30] 29%
